Test results reported in US9856218B2, “Inhibitors of PRMT5 and methods of their use” (Ohio State Innovation Foundation, priority 2013, dated 2018).
Where two headings read alike, the source gives them in different places.

How the values were obtained:
[1] = tested on: H4R3me2 binding to miR-29b regulatory site; experiment: ChIP assay at miR-29b regulatory site; assay type: cell-based
Protocol: Cross-linked chromatin was prepared by incubating cells in 1% formaldehyde for 10 min at room temperature and quenching with ice cold 1M Glycine. Cells were sonicated in 1% SDS lysis buffer and sheared chromatin was used to pull down protein/DNA complexes using antibodies against SP1, p65 (ChIP-grade Millipore), H4R3me2, H3R8me2 (Abcam) and RNA Pol II as positive control and normal IgG (Millipore) as negative control. Reverse cross-linked DNA was purified using QIAquick PCR Purification kit (Qiagen) and quantitative real-time PCR was carried out using SYBER green incorporation and primers designed for either FLT3 promoter region (sequenceF:R:) or miR-29b enhancer region (sequenceF:R:). DNA signals were calculated relative to input DNA amount and in comparison to expression values of negative control IgG.
The regulatory region of pri-miR-29b was later checked for possible docking of PRMT5 (indirect binding) or H3R8me2 and/or H4R3me2 (direct binding) using ChIP assay with and without PRMT5 inhibition. […] The efficiency of miR-29b in modulating SP1 was confirmed by miR-29b gain- and loss-of function assays in AML cells, and significant suppression of SP1 in miR-29b overexpressing cells was detected, while SP1 was re-expressed when cells were treated with miR-29b knockdown (FIGS. 49A and 49B). […]

AML cell lines = experiment: MTS growth inhibition assay, summary over cell lines; assay type: cell-based
Protocol: Clonogenic assays were set up by plating 1×10^3 cell/mL in semi-solid methylcellulose medium (MethoCult, Stem Cell Technologies). Colonies were counted after 10-14 days using an inverted microscope. Growth inhibition assays were measured using a colorimetric MTS assay: 5×10^4 cells were plated in 100 μL final volume in a 96-well plate in the presence of different concentrations of C12 for 24, 48 and 72 hours at 37° C. Afterwards, 20 μL of the CellTiter 96W AQueous One Solution Reagent, which contains tetrazolium compound [3-(4,5-[…])-5-(3-carboxymethoxyphenyl)-2-(4-sulfophenyl)-2H-tetrazolium, inner salt; MTS] and an electron coupling reagent (phenazine ethosulfate; PES) (Promega, Madison Wis.), was added to each well. Within 1-4 hours of incubation at 37° C., the optical density at 490 and 690 nm was measured. Cell viability was calculated with respect to the control samples and reference background wavelength at 690 nm. At least three independent experiments were performed. […]
Referring to FIGS. 34A and 34B, a colorimetric MTS assay was used to measure the proliferation rate of AML cell lines and primary blasts from patients after 48 hours incubation with a PRMT5 inhibitor compound (HLCL61 or C12). The dose-dependent decrease in absorbance indirectly correlates with the number of metabolically active live cells. […]

[2] = MTD study, four mice each dose; assay type: in vivo; details: mouse, in vivo, ip
Protocol: Controlled shRNA depletion was evaluated in a murine lymphoma model (Eμ-BRD2 (Chung, J., et al. (2013) J. Biological Chemistry 288, 35534-35547)) and human xenograft model of glioblastoma (Yan, F., et al (2014) Cancer Research In Press). Referring to FIG. 62A, controlled expression of a PRMT5 shRNA (solid line) but not control shRNA (dashed line) leads to 100% survival of mice engrafted primary DLBCL tumor cells. […] The maximum tolerated dose (MTD, single dose) was identified at 50 mg/kg (see Table 11 below). A sub-toxic dose (25 mg/kg) was used to treat FcMCL mice. Control mice developed peripheral blood and lymph node tumor burden starting day 20 post-engraftment.

[3] = tested on: FLT3 response element in THP-1 cells; experiment: FLT3-promoter-Luciferase reporter assay; assay type: cell-based
Protocol: Promoter region of FLT3 (SEQ ID NO. 1: […] […] […] […] […] […] […] […] […] […] […] […] […] […] CGCGAGGCGCGCCGCT.[…] […] […] […] […] […] […]) was cloned into pGL4.11 [luc2P] vector. THP-1 cells were transfected with empty vector or FLT3-promoter luciferase plasmid and Renilla in presence or absence of C12. Firefly luciferase and Renilla luciferase activity was measured using Dual-Luciferase Reporter Assay System (Promega).
A key regulator of FLT3 expression in AML has been previously identified: a transactivation complex composed of transcription factors SP1 and NFκB(p65) (Liu, S., et al. (2010) Cancer Cell 17, 333-347; Blum, W., et al. (2012) Blood 119, 6025-6031). […] The role of PRMT5 in recruitment and localization of these factors to regulatory region of FLT3 was then tested using a chromatin immunoprecipitation (ChIP) assay and antibodies specific for NFκB(p65), SP1 and primers designed to amplify predicted binding sites at the promoter region of FLT3 (Liu, S., et al. (2008) Blood 4, 2364-2373; Liu, S., et al. (2010) Cancer Cell 17, 333-347). […] PRMT5 was then overexpressed in MV4-11 and THP-1 cells, and the ChIP experiment repeated. […] Additionally, supporting a functional role for PRMT5 in modulating FLT3 activity, inhibition of PRMT5 following exposure to C12 disrupted the FLT3 response element (i.e. FLT3-promoter-Luciferase reporter) activities in THP-1 cells (FIG. 43B). […]

THP-1 = experiment: MTS growth inhibition assay; assay type: cell-based; details: Homo sapiens; THP-1, FLT3-WT, 48 h
Protocol: (§1) Clonogenic assays were set up by plating 1×10^3 cell/mL in semi-solid methylcellulose medium (MethoCult, Stem Cell Technologies). Colonies were counted after 10-14 days using an inverted microscope. Growth inhibition assays were measured using a colorimetric MTS assay: 5×10^4 cells were plated in 100 μL final volume in a 96-well plate in the presence of different concentrations of C12 for 24, 48 and 72 hours at 37° C. Afterwards, 20 μL of the CellTiter 96W AQueous One Solution Reagent, which contains tetrazolium compound [3-(4,5-[…])-5-(3-carboxymethoxyphenyl)-2-(4-sulfophenyl)-2H-tetrazolium, inner salt; MTS] and an electron coupling reagent (phenazine ethosulfate; PES) (Promega, Madison Wis.), was added to each well. Within 1-4 hours of incubation at 37° C., the optical density at 490 and 690 nm was measured. Cell viability was calculated with respect to the control samples and reference background wavelength at 690 nm. At least three independent experiments were performed. Growth curve assays were done by counting live cells using Trypan blue exclusion and inverted microscope for >12 days after plating the cells in 1×10^5 concentrations.
(§2) PRMT5 inhibition by C12 was also effective in promoting apoptosis and differentiation.
(§3) Referring to FIGS. 34A and 34B, a colorimetric MTS assay was used to measure the proliferation rate of AML cell lines and primary blasts from patients after 48 hours incubation with a PRMT5 inhibitor compound (HLCL61 or C12). The dose-dependent decrease in absorbance indirectly correlates with the number of metabolically active live cells. The IC50 values represent the concentration of the compound at which 50% cell death was achieved.

MOLM-13 = experiment: MTS growth inhibition assay; assay type: cell-based; details: Homo sapiens; MOLM-13, FLT3-ITD+, 48 h
Protocol: as §1, §2, §3

KG-1 = experiment: MTS growth inhibition assay; assay type: cell-based; details: Homo sapiens; KG-1, P53 mutation, 48 h
Protocol: as §1, §2, §3

Kasumi-1 = experiment: MTS growth inhibition assay; assay type: cell-based; details: Homo sapiens, Kasumi-1, KIT mutation, read-out: IC50 μM
Protocol: as §1, §2, §3

CCn1c2ccccc2c2cc(CNCc3ccccc3OC)ccc21 [HLCL-61]
binding of H4R3me2 to miR-29b regulatory site [1]: significant decrease in binding
IC50 (AML cell lines; 48 h post treatment, range over AML cell lines): 21 to 21.5 µM
inhibition of cell proliferation (AML cell lines; AML cell lines and primary patients' blasts, 1 to 100 μM): dose-dependent (1 to 100 μM) inhibition of cell proliferation
survival 24 hr after dosing ([2]; 5 mg/kg, 24 h): Alive 24 hr after
condition within 1 hr after dosing (alive but slow moving) ([2]; 50 mg/kg): Alive within 1 hr after
mice lethargic and slow moving 24 hr after dosing ([2]; 50 mg/kg, 24 h): after dosing, 1 out 4
survival 24 hr after dosing ([2]; 50 mg/kg, 24 h): moving. Alive 24 hr
FLT3 response element (FLT3-promoter-Luciferase reporter) activities [3]: disrupted
IC50 (THP-1): 16.7 µM
IC50 (MOLM-13): 21.5 µM
IC50 (KG-1): 7.21 µM
IC50 (Kasumi-1; 24 h, 24 h): 6.99 µM
IC50 (Kasumi-1; 48 h, 48 h): 7.21 µM
IC50 (Kasumi-1; 72 h, 72 h): 5.63 µM
